Reference: US20130281463A1, “DIAZA-SPIRO[5.5]UNDECANES USEFUL AS OREXIN RECEPTOR ANTAGONISTS” (NOVARTIS AG, priority 2010, published 2013)
Like-named read-outs stand apart in the source and are kept apart here.

Columns and labels:
human orexin 2 receptors [1] = target: T1, human orexin 2 receptors (Homo sapiens, UniProt O43614); experiment: Radioligand binding assay ([3H]-SB649868 competition), hOx2R; conditions: competition with about 1 nM [3H]-SB649868, cell membranes
T1 construct: expressed in transfected cells
T1 sequence (O43614 1-444): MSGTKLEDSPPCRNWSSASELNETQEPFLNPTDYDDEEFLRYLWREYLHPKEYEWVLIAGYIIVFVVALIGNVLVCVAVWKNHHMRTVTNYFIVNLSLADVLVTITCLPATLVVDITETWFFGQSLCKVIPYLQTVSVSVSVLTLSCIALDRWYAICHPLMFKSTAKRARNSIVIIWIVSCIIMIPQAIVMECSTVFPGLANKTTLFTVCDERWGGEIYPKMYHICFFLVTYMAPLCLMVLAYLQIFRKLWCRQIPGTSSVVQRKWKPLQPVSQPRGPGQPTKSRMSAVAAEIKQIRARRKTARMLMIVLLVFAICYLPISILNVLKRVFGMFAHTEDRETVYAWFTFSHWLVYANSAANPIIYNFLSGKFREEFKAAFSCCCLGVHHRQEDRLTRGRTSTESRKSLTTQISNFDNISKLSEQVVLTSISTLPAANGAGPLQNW
Procedure: For crude cell membrane preparations, cells (CHO, Chinese hamster ovary or HEK, human embryonic kidney) expressing human orexin 1 or human orexin 2 receptors, were washed with HEPES (10 mM, pH 7.5), scraped off the culture plates with the same buffer, and centrifuged at 4° C. for 5 min at 2500×g. The cell pellet was either stored at −80° C. or used directly. Before the experiments, cell membranes were re-suspended in binding assay buffer (10 mM HEPES, 0.5% (w/v) bovine serum albumin, pH 7.5) by homogenisation with a Polytron homogeniser at 50 Hz for 20 s.

human orexin 1 receptors [2] = target: T2, human orexin 1 receptors (Homo sapiens, UniProt O43613); experiment: Radioligand binding assay ([3H]-SB649868 competition), hOx1R; parameters: expressed in transfected cells; conditions: competition with about 1 nM [3H]-SB649868, cell membranes
T2 sequence (O43613 1-425): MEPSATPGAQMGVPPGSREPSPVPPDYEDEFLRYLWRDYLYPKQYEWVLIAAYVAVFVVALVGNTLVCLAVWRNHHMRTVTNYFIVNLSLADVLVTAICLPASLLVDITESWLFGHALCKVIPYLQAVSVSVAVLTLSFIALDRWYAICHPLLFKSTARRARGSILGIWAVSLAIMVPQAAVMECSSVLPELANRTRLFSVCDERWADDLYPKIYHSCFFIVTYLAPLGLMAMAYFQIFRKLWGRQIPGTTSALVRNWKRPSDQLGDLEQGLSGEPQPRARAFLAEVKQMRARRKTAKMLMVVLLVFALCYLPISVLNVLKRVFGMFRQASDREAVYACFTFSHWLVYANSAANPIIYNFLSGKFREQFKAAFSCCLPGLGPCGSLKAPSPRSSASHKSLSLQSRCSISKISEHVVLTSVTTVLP
Procedure: The cell pellet was either stored at −80° C. or used directly. Before the experiments, cell membranes were re-suspended in binding assay buffer (10 mM HEPES, 0.5% (w/v) bovine serum albumin, pH 7.5) by homogenisation with a Polytron homogeniser at 50 Hz for 20 s. Cell membranes were also used as made available by commercial providers.
Bound radioactivity was measured, and data were analysed with the program XLFIT or Graphpad Prism. Protein concentration was determined according to the Bradford/BioRad Protein Assay Kit.
In competition experiments, cell homogenates (150 μl) were incubated in assay buffer (10 mM HEPES, pH 7.5, 0.5% (w/v) bovine serum albumin, 5 mM MgCl2, 1 mM CaCl2, and tween 0.05%) for 1 h at room temperature with about 1 nM of the radioligand [^3H]-SB649868, 66 Ci/mmole, 50 μl), and with various concentrations of compounds of the invention (50 μl) in triplicates; non-specific binding was determined in the presence of almorexant (10 μM). Reactions were terminated by vacuum filtration, 3 washes of ice cold wash buffer (Tris-HCl pH 7.4/10 mM, with NaCl 154 mM). Competition data is expressed in Table 2 as Kd [μM].

human orexin 1 receptors [3] = target: T2, human orexin 1 receptors; experiment: Calcium accumulation in cells (FLIPR), hOx1R
Procedure: (§1) Cells expressing human orexin 1 or human orexin 2 receptors, were seeded at 8,000 cells/well in 384 well black-walled clear bottom, poly-D-lysine coated plates. After 24 h, the medium was removed and cells were washed once with phosphate buffered saline and serum-deprived overnight in assay buffer (130 mM NaCl, 5.4 mM KCl, 1.8 mM CaCl2, 0.8 mM MgSO4, 0.9 mM NaH2PO4, 25 mM glucose, 20 mM HEPES, pH 7.4) containing bovine serum albumin (1% w/v).
On the day of the experiment, the cells seeded in black plates were treated with assay buffer containing the Ca^2+ sensitive fluorescent dye Fluo4-AM (2 μM), and probenecid (0.1 mM). After 1 h plates were washed twice with, and resuspended in, assay buffer containing probenecid (0.1 mM) using a multi plate washer. The plates were placed into a FLIPR II (Fluorometric Imaging Plate Reader, Molecular Devices, Sunnyvale, Calif., USA) and baseline fluorescence (fluorescence light units, FLU) was measured (5 measurements, 2 S each; laser excitation 488 nm at 0.6-1 W, CCD camera exposure 0.4 s) before addition of buffer alone (basal) or containing test compounds (either compound of formula I alone, agonist alone or agonist in the presence of various concentrations of compounds of formula I). Fluorescence measurements were then continued every 1 S for 120 S followed by every 4 S for 240 S.
(§2) Compounds of formula I were tested usually in a concentration range from 10^−9 M to 10^−5M.
(§3) In the second round, performed one hour later (to allow for equilibration), Orexin A was tested either in the absence (calibration curves, Orexin A agonist controls) or in the presence of compounds of formula I to determine antagonism.
Inhibition data is expressed in Table 2 as Ki [μM], converted by the Cheng and Prusoff correction (Ki=IC50/1+(L/EC50)), where IC50 is the 50% inhibition value determined in concentration response inhibition curves, EC50 is the half maximal activation concentration determined for orexin A in concentration response curves and L is the concentration of orexin A used in inhibition experiments performed in with a submaximal concentration of orexin A in the presence of up to 8 increasing concentrations of compound of formula I. Inhibition data is also expressed in Table 2 as % inhibition value measured at a concentration of 10 μM of selected compounds of formula I.

human orexin 2 receptors [4] = target: T1, human orexin 2 receptors; experiment: Calcium accumulation in cells (FLIPR), hOx2R; format: cell-based; conditions: inhibition of orexin A induced calcium accumulation; Cheng and Prusoff correction
Procedure: as §1
On the day of the experiment, the cells seeded in black plates were treated with assay buffer containing the Ca^2+ sensitive fluorescent dye Fluo4-AM (2 μM), and probenecid (0.1 mM). After 1 h plates were washed twice with, and resuspended in, assay buffer containing probenecid (0.1 mM) using a multi plate washer. […] Fluorescence measurements were then continued every 1 S for 120 S followed by every 4 S for 240 S.
as §2, §3

[5] = read-out: FLIPR hOx1R Ki, inhibition of orexin A induced calcium accumulation, Cheng and Prusoff correction

| SMILES | Kd (human orexin 2 receptors [1]) [nM] | Kd (human orexin 1 receptors [2]) [nM] | Ki (human orexin 1 receptors [3]) [nM] | Ki (human orexin 2 receptors [4]) [nM] | Ki (human orexin 1 receptors [3]; [5]) [nM] | inhibition at 10 µM (human orexin 1 receptors [3]; read-out: FLIPR hOx1R % inhibition value) [%] |
| --- | --- | --- | --- | --- | --- | --- |
| Cc1cc(C#N)nc(N2CCC3(CCCN(Cc4ccccc4-n4nccn4)C3=O)CC2)n1 [Example 25, 2-(2-(2-(2H-1,2,3-triazol-2-yl)benzyl)-1-oxo-2,9-diazaspiro[5.5]undecan-9-yl)-6-methylpyrimidine-4-carbonitrile] | 389 | > 10000 | 3700 | 68 | – | – |
| COC(=O)c1ccc2[nH]cc(CN3CCCC4(CCN(c5nc(C)cc(C)n5)CC4)C3=O)c2c1 [Example 115, Methyl 3-((9-(4,6-dimethylpyrimidin-2-yl)-1-oxo-2,9-diazaspiro[5.5]undecan-2-yl)methyl)-1H-indole-5-carboxylate] | – | – | – | 0.7 | 21 | – |
| COc1cncc(N2CCC3(CCCN(Cc4c[nH]c5ccccc45)C3=O)CC2)n1 [Example 82, 2-((1H-indol-3-yl)methyl)-9-(6-methoxypyrazin-2-yl)-2,9-diazaspiro[5.5]undecan-1-one] | 3160 | > 10000 | 856 | 57 | – | – |
| COc1ccnc(N2CCC3(CCCN(Cc4c[nH]c5ccccc45)C3=O)CC2)n1 [Example 13, 2-((1H-indol-3-yl)methyl)-9-(4-methoxypyrimidin-2-yl)-2,9-diazaspiro[5.5]undecan-1-one] | – | – | – | 14 | – | – |
| COc1cc(-c2nn(C)nc2CN2CCCC3(CCN(c4nc(C)cc(C)n4)CC3)C2=O)ccn1 [Example 122, 9-(4,6-dimethylpyrimidin-2-yl)-2-((5-(2-methoxypyridin-4-yl)-2-methyl-2H-1,2,3-triazol-4-yl)methyl)-2,9-diazaspiro[5.5]undecan-1-one] | 14 | 130 | 176 | 1.4 | – | – |
| O=C1N(Cc2cccc3c2OCCO3)CCCC12CCN(c1cncc(Cl)n1)CC2 [Example 21, 9-(6-chloropyrazin-2-yl)-2-((2,3-dihydrobenzo[b][1,4]dioxin-5-yl)methyl)-2,9-diazaspiro[5.5]undecan-1-one] | – | – | – | 247 | – | 26 |
| Cc1cc(C)nc(N2CCC3(CCCN(Cc4ccccc4-c4nc(C)no4)C3=O)CC2)n1 [Example 1, 9-(4,6-dimethylpyrimidin-2-yl)-2-(2-(3-methyl-1,2,4-oxadiazol-5-yl)benzyl)-2,9-diazaspiro[5.5]undecan-1-one] | – | – | – | 7 | 1620 | – |
